Counter-ions that a name gives are not always drawn. Like-named read-outs stand apart in the source and are kept apart here.
What was measured:
Assay type in all cases: cell-based
human blood platelets = assay: In vitro inhibition of ADP-induced human platelet aggregation (platelet-rich plasma, aggregometer)
Description: Procedure for Determining In Vitro Platelet Aggregation-Inhibitory Activity. Adenosine diphosphate (ADP) was used to induce platelet aggregation and was utilized as the sodium salt. A 10 mM stock solution was prepared fresh before each use in modified Tyrode's buffer and working dilutions were prepared with modified Tyrode's buffer immediately prior to use. The buffer contained NaCl (137.00 mM), KCl (2.70 mM), NaHCO3 (11.90 mM), NaH2 PO4 H2 O (0.36 mM) and glucose (5.60 mM) in redistilled water. Adjustment to pH 7.4 was effected by addition of 1N HCl.
The blood was transferred into plastic centrifuge tubes containing 3.2% sodium citrate (blood/citrate ratio 8:1) and centrifuged at 120Xg for 15 minutes at 23° C., yielding platelet-rich plasma (PRP); platelet-poor-plasma (PPP) was obtained by centrifugation of citrated whole blood at 1,100Xg for 15 min at 23° C. The platelet count of PRP was determined and adjusted to a final count of 300,000 platelet per mm^3 by dilution with autologous PPP. […] The plasma so obtained was transferred using a 1.0 ml Centaur pipette into a 50 ml polyethylene centrifuge tube. In order to maintain plasma pH in the appropriate range, the air in the tubes are displaced gently (2 minutes) with a 5% (CO2 -95% air (v/v) mixture and the tube capped. The plasma was maintained at 37° C. in a water bath until used in the aggregation experiments.
Assays of platelet aggregation were performed at least in duplicate, using plasma acquired from different donors, employing a method developed by Quintana, et al. (Quintana, et al., Relationships Between the Chemical Constitution of Carbamoylpiperidines and Related Compounds, and Their Inhibition of ADP-Induced Human Blood Platelet Aggregation, Thromb. Res. Vol. 22, Pages 665-680, 1981); Quintana, et al., Effects of Ethanol and of Other Factors on ADP-Induced Aggregation of Human Blood Platelets in Vitro, Thromb. Res., Vol. 20, Pages 405-415, 1980) (cf. Born, Nature, Vol. 194, Pages 927-929, 1962) and Mustard, et al., J. Lab. Clin. Med., Vol. 64, Pages 548-559, 1964).
Initially, in each experiment, 0.45-ml aliquots of PRP were placed in siliconized cuvettes and stirred (1,100 rpm) in the aggregometer at 37° C. to ascertain the absence of spontaneous aggregation. Appropriate ADP solutions (50 μl) were subsequently injected using a Hamilton microliter syringe to determine the minimal concentration eliciting maximal biphasic aggregation. […] In each case, the concentration of ADP so determined was used in eliciting aggregation throughout each specific set of aggregometric evaluations.
0.5 μl of a solution of the evaluant compound in redistilled 95% ethanol was injected into a stirred ([…]) 0.4-ml aliquot of plasma in a siliconized cuvette in the aggregometer-well (37° C). After 15 seconds, the cuvette was transferred to an incubator (also at 37° C.) and the contents held at this temperature, without stirring, until 2 minutes postinjection. The cuvette was then returned to the aggregometer-well, a base-line being recorded for 2 minutes to detect any spontaneous aggregation. At exactly 4 minutes after injection of the evaluant solution, 50 μl of the appropriate ADP solution was injected and aggregation recorded for 5.5 minutes. Evaluants were studied at least 4 different concentrations. Control experiments (ethanol in a final concentration of 0.095% v/v) were performed in conditions parallel with those involving the respective evaluants, and were initiated either 1 minute prior to or 1 minute after the start of experiments employing the test compounds. This permitted injections to be made precisely at the specified times.

human platelets = assay: Inhibition of collagen-induced aggregation, washed aequorin-loaded platelet suspension; details: Homo sapiens, Platelet; collagen-induced aggregation (n = 4); HEPES-buffered saline, 1.0 mM CaCl2; read-out: Ia50 ± S.E. Collagen-induced
Description: (§1) Procedure for Cytosolic Ionized Calcium Determination. The basic procedure of Yamaguchi, et al. (Thromb. Res., Vol. 44, Pages 165-174, 1986) was followed. Blood was collected from six blood donors, aged 24-38 years, who had fasted overnight and affirmed abstinence from alcohol, caffeine and medications of any kind for a period of at least one week prior to donation. […] Platelets were collected (800 g, 15 min), resuspended in and washed (800 g, 15 min) with HEPES-buffered saline (140 mM NaCl, 2.7 mM KCl, 0.1% bovine albumin, 0.5% glucose, 3.8 mM HEPES, pH 7.6) with EGTA (5 mM) and PGE1 (1 μM). The platelet pellet was resuspended in 90 μl of the same buffer and added to 20μl of 3 mg/ml aequorin solution in a 1.5 ml Eppendorf centrifuge tube. Six 1 μl aliquots of DMSO were added at 90 second intervals with brief, gentle mixing on a Vortex mixer and the platelet suspension was incubated 2 minutes after the last addition. One ml of HEPES-buffered saline was added, gently mixed, and again incubated for 2 minutes. The platelets were pelleted (1000 g, 30 sec), resuspended in HEPES-buffered saline to which was added either 1 mM Mg Cl2, (calcium-free buffer) or 1 mM Mg Cl2 and 1 mM Ca Cl2 (calcium buffer), depending on the experiment. The platelet count was adjusted to 3-4×10^5 platelets/μl.
(§2) The Platelet Ionized Calcium Aggregometer (Chrono-Log Corp., Ltd., Havertown, Pa.) was used to obtain simultaneous aggregation and luminescence data under the following experimental conditions: (1) platelet suspension, 1 ml, was equilibrated at 37° C. with stirring at 1100 rpm; (2) 100 μl (1.2 μg) of fibrinogen was added; (3) the vehicle (95% ethanol) or the test compound in vehicle was added; (4) when needed, 10 μl of the desired concentration of EGTA was added 30 seconds prior to addition of the agonist; then (5) the agonist (Collagen, 5 μg or 20 μg) was added and the time noted. At one minute after addition of the agonist in Channel 1, a platelet sample containing fibrinogen in Channel 2 was lysed with 10 μl of a 1:1 solution of Triton X-100 (final concentration 0.005%) 10 mM CaCl2 (final concentration 0.5 mM). Treated and control […] data were corrected for time dependent decay of fluorescence using data from the untreated lysed controls.
(§3) Normally 4 compound-treated samples (at 4 different concentrations) interspersed with 3 control samples were evaluated at 4.5 minute intervals starting 18-23 minutes after the DMSO treatment. The Ia50 values were calculated as described earlier. The compound concentrations effecting 50% inhibition (Ica50) of collagen-induced cytosolic ionized calcium values was determined by linear regression analysis.
Compounds I-rac, (+)-I,(IC) and (-)-I(IA) were evaluated. The Ia50 (collagen-induced aggregation) and Ica50 (compound concentration required to inhibit by 50% the collagen-induced rise in cytosolic ionized calcium)values determined with platelet suspensions in HEPES-buffered saline containing 1.0 mM CaCl2 were as follows: […]

[1] = system: cytosolic ionized calcium in human platelets; assay: Inhibition of collagen-induced rise in cytosolic ionized calcium (aequorin luminescence); details: collagen-induced, 1mM [Ca2+]o (n = 4), read-out: Ica50 ± S.E. Collagen-induced (50% inhibition of collagen-induced rise in cytosolic ionized calcium)
Description: as §1, §2, §3
Compounds I-rac, (+)-I,(IC) and (-)-I(IA) were evaluated. The Ia50 (collagen-induced aggregation) and Ica50 (compound concentration required to inhibit by 50% the collagen-induced rise in cytosolic ionized calcium)values determined with platelet suspensions in HEPES-buffered saline containing 1.0 mM CaCl2 were as follows:
Collagen-stimulation of platelets suspended in media containing 1.0 mM of Ca^2+ (FIG. 13) or 1.0 mM (FIG. 14A) or 2.0 mM (FIG. 14B) EGTA (a calcium chelator) gave […] cytosolic ionized calcium peak (aequorin-indicated luminescence). Contrarily, two phases of Ca^2+ mobilization were observed when aequorin-loaded human platelets suspended in a medium containing 0.1 mM EGTA were stimulated with collagen (FIG. 14, designation D). The first corresponded to platelet shape change and the second peak to aggregation. […] The platelet suspension (1.0 ml) was pre-incubated with 1.0 μl of (A) 95% ethanol, (B) a solution of Compound I (14.59 μM) in 95% ethanol, or (C) a solution of Compound I (23.87 μM) in 95% ethanol. Collagen (20 μg) was added at time indicated by the arrows. Luminescence was again recorded at a gain of 0.5. […] Accordingly, the stereo-selective inhibitory properties of the compounds of the present invention appear to be mediated through the inhibition of [Ca^2+ ].

[2] = Homo sapiens, Platelet, racemic compounds, ADP-induced, read-out: IC50 (compound concentration which inhibits ADP-induced platelet aggregation by 50%) ± S.E.
[3] = Homo sapiens, Platelet, read-out: IC50 (compound concentration which inhibits ADP-induced platelet aggregation by 50%) ± S.E., racemic compounds, ADP-induced
[4] = Homo sapiens, Platelet, read-out: Ia50 ± S.E. ADP-induced, table 4, ADP-induced, 5 to 7 individual determinations
[5] = Homo sapiens, Platelet, read-out: Ia50 (compound concentrations affecting 50% inhibition of aggregation) ± S.E., Table II, ADP-induced, n = 5 for (0)I and 6 for all others
[6] = Homo sapiens, Platelet, read-out: Ia50 ± S.E. ADP-Induced, table 3, ADP-induced (n = 5-6)

Question: Which results are given for `CCN(CC)CC1CCCN(Cc2ccc(CN3CCCC(CN(CC)CC)C3)cc2)C1` (racemic) [Compound 4, α,α'-Bis[3-(N,N-diethylaminomethyl)-piperidino]-p-xylene tetrahydrochloride]?
Answer: IC50 (human blood platelets; [2]): 156 ± 460 µM; IC50 (human blood platelets; Homo sapiens, Platelet, racemic compounds, C = IC50 × 10^-3, read-out: Log1/C (converted)): 1570 µM

Question: `O=C(NCc1ccccc1)C1CCCN(Cc2ccc(CN3CCCC(C(=O)NCc4ccccc4)C3)cc2)C1` (racemic) [Compound 5, α,α'-Bis[3-(N-benzylcarbamoyl)piperidino]p-xylene dihydrobromide] was tested. Which IC50 (human blood platelets; [2]) did it give?
Answer: The IC50 was 53.6 ± 5.3 µM.

Question: For `CCN(Cc1ccccc1)C(=O)C1CCCN(Cc2ccc(CN3CCCC(C(=O)N(CC)Cc4ccccc4)C3)cc2)C1` (racemic) [Compound 6, α,α'-Bis[3-(N-benzyl-N-ethylcarbamoyl)piperidino]-p-xylene dihydrobromide], which IC50 (human blood platelets; [2]) is on record?
Answer: Its IC50 is 37.7 ± 4.6 µM.

Question: With `CCCN(Cc1ccccc1)C(=O)C1CCCN(Cc2ccc(CN3CCCC(C(=O)N(CCC)Cc4ccccc4)C3)cc2)C1` (racemic) [Compound 7, α,α'-Bis[3-(N-benzyl-N-propylcarbamoyl)piperidino]p-xylene dihydrobromide] as the molecule, how does the IC50 (human blood platelets; [2]) read?
Answer: The IC50 was 72.9 ± 20.8 µM.

Question: `O=C(C1CCCN(Cc2ccc(CN3CCCC(C(=O)N(Cc4ccccc4)Cc4ccccc4)C3)cc2)C1)N(Cc1ccccc1)Cc1ccccc1` (racemic) [Compound 8, α,α'-Bis[3-(N,N-dibenzylcarbamoyl)piperidino] p-xYlene dihydrobromide] was tested. Which IC50 (human blood platelets; [2]) did it give?
Answer: The IC50 was 303 ± 60.8 µM.

Question: How did the IC50 (human blood platelets; Homo sapiens, Platelet, table 4, ADP-induced, 5 to 7 individual determinations, read-out: Ia50 ± S.E. ADP-induced) turn out when `O=C(C1CCCN(Cc2ccc(CN3CCCC(C(=O)N4CCCCC4)C3)cc2)C1)N1CCCCC1` (racemic) [Compound 10, α,α'-Bis[3-(piperidinocarbonyl)piperidino] p-xylene dihydrobromide] was run?
Answer: The IC50 was 28.9 ± 8.96 µM.

Question: Which results are given for `CN(Cc1ccccc1)C(=O)C1CCCN(Cc2ccc(CN3CCCC(C(=O)N(C)Cc4ccccc4)C3)cc2)C1` (racemic) [Compound 13c, α,α'-Bis[3-(N-benzyl-N-methylcarbamoyl)piperidino]p-xylene]?
Answer: IC50 (human blood platelets; [3]): 27.3 ± 3.2 µM; IC50 (human blood platelets; [4]): 27.3 ± 3.23 µM

Question: Which IC50 (human blood platelets; read-out: Ia50 ± S.E. ADP-induced, table 4, ADP-induced, 5 to 7 individual determinations, listed as 13c-A(-)) does the source give for `CN(Cc1ccccc1)C(=O)C1CCCN(Cc2ccc(CN3CCCC(C(=O)N(C)Cc4ccccc4)C3)cc2)C1` (single isomer, unassigned) [Compound 13c-A] here?
Answer: Its IC50 is 57.4 ± 6.01 µM.

Question: Which IC50 (human blood platelets; read-out: Ia50 ± S.E. ADP-induced, table 4, ADP-induced, 5 to 7 individual determinations, listed as 13c-C(+)) does the source give for `CN(Cc1ccccc1)C(=O)C1CCCN(Cc2ccc(CN3CCCC(C(=O)N(C)Cc4ccccc4)C3)cc2)C1` (single isomer, unassigned) [Compound 13c-C] here?
Answer: Its IC50 is 9.55 ± 1.47 µM.

Question: `CCN(CC)C(=O)C1CCCN(Cc2ccc(CN3CCCC(C(=O)N(CC)CC)C3)cc2)C1` (single isomer, unassigned) [IA] was tested. Which IC50 (human platelets) did it give?
Answer: The IC50 was 199 µM.

Question: And the IC50 ([1]; listed as IA (-)-I)?
Answer: The IC50 was 171 µM.

Question: What about the IC50 (human blood platelets; [5]) of the same molecule?
Answer: The IC50 was 233 ± 52.1 µM.

Question: And the IC50 (human blood platelets; [6])?
Answer: Its IC50 is 233 µM.

Question: How did the IC50 (human blood platelets; [5]) turn out when `CN(C)CCCN1c2ccccc2Sc2ccc(Cl)cc21` [Chlorpromazine, reference compound] was run?
Answer: Its IC50 is 156 ± 25.5 µM.

Question: How did the IC50 (human blood platelets; [3]) turn out when `CCCCN(C)C(=O)C1CCCN(Cc2ccc(CN3CCCC(C(=O)N(C)CCCC)C3)cc2)C1` (stereo not drawn) [Compound 9, α,α'-Bis[3-(N-methyle-N-butylcarbamoyl)piperidino] p-xylene dihydrobromide] was run?
Answer: The IC50 was 22.1 ± 5.5 µM.

Question: How did the IC50 (human blood platelets; [4]) turn out when `CN(Cc1ccccc1)C(=O)[C@@H]1CCCN(Cc2ccc(CN3CCC[C@H](C(=O)N(C)Cc4ccccc4)C3)cc2)C1` [Compound 13c-B] was run?
Answer: Its IC50 is 46.9 ± 8.37 µM.

Question: With `CCN(CC)C(=O)[C@@H]1CCCN(Cc2ccc(CN3CCC[C@H](C(=O)N(CC)CC)C3)cc2)C1` [IB] as the molecule, how does the IC50 (human platelets) read?
Answer: Its IC50 is 65.7 µM.

Question: What about the IC50 ([1]; Homo sapiens, Platelet) of the same molecule?
Answer: The IC50 was 24.3 µM.

Question: And the IC50 (human blood platelets; [5])?
Answer: The IC50 was 41.4 ± 11.8 µM.

Question: What about the IC50 (human blood platelets; [6]) of the same molecule?
Answer: Its IC50 is 41.4 µM.

Question: With `CN1CCN(CCCN2c3ccccc3Sc3ccc(C(F)(F)F)cc32)CC1` [Trifluoperazine, reference compound] as the molecule, how does the IC50 (human blood platelets; Homo sapiens, Platelet, Table II, ADP-induced, n = 5 for (0)I and 6 for all others, read-out: Ia50 (compound concentrations affecting 50% inhibition of aggregation) ± S.E.) read?
Answer: The IC50 was 202 ± 21.9 µM.

Reference: patent US5219867A, “Platelet aggregation inhibitory agents” (priority 1992, dated 1993)
